Data: US20260256799A1, “INHIBITORS FOR TREATING SOLID TUMOURS” (UNIVERSITY OF SOUTHAMPTON, priority 2023, published 2026)

Tested on: MLF
Assay: TGF-β1-induced myofibroblast differentiation of mouse lung fibroblasts
Type: cell-based
Description: Human NSCLC cell line H441, HNSCC SCC25, murine cancer cell line TC-1 (lung), MC38 (colon) and human fetal foreskin fibroblasts HFFF2 were purchased from European Collection of Cell Cultures (Public Health England) or ATCC; HNSCC 5PT [32] were provided by l. Mackenzie (Queen Mary University of London, UK). HEK-293T cells and IMR90 lung fibroblasts were provided by Jesus Gil (Imperial College, London, UK). SCC25 were grown in Ham's F12:DMEM (1:1 ratio) medium with 10% FBS (Calbiochem) and 292 μg/ml L-Glutamine. 5PT were cultured in keratinocyte growth medium. HEK-293T, H441, MC38, HFFF2, IMR90 and primary fibroblasts were grown in DMEM supplemented with 10% FBS and 292 μg/ml L-Glutamine. Primary fibroblasts were isolated as previously used at early passage (p1-10). C57BL/6 murine normal lung and colon fibroblasts (MLF and MCF respectively) were grown at 3% oxygen. TC-1 were cultured in RPMI supplemented with 10% FBS and 292 μg/ml L-Glutamine. All cell cultures were routinely tested for mycoplasma contamination. All cells were cultured using standard cell culture plates/flasks (Corning). HFFF2 or IMR90 cells were transfected with 25 μM On-Target pool siRNA (Thermo Scientific/Dharmacon) using Oligofectamine reagent (Life Technologies) as described. Stable knockdown was performed using retro/lentiviral mediated transduction of shRNA plasmids, as previously described followed by cell selection using 1 μg/ml puromycin for 5-7 days. NOX4-inducible HEK-293 cells (kindly provided by Vincent Jaquet) were treated with 1 μg/ml doxycycline. […]
5×10^3 HFFF2 were plated on permanox chamber slides (Thermo Scientific) and treated as described in the figure legends. […] Images were taken using an Olympus IX81 fluorescence microscope and Xcellence program. DNA Damage foci were quantified from at least 8 non-overlapping FoV with ~300 cells in total per condition. […] SMA and Collagen 1A1 quantification was performed using Fiji. […]

[1] = AZD0156 0.5 μM + TGF-β1 for a week, Q-RT-PCR

CN(C)CCCOc1ccc(-c2ccc3ncc4c(c3c2)n(C2CCOCC2)c(=O)n4C)cn1 [AZD0156]
myofibroblast differentiation in vitro (AZD0156 0.5 μM + TGF-β1, 72 hours (Western) or 7 days (Collagen1, Fibronectin)): suppressed | effect on iCAF genes [1]: gene-specific and generally non-significant | myoCAF genes expression [1]: significantly down-regulated
